{"source": "patent US12150935B1", "about": "“3-(3-(1,3-dioxoisoindolin-2-yl) propyl)-5-(4-fluorobenzylidene) thiazolidine-2,4-dione as a potential antitumor and apoptotic inducer” (IMAM MOHAMMAD IBN SAUD ISLAMIC UNIVERSITY, priority 2024, dated 2024)", "key": {"[1]": {"tested_on": "human oral epithelial normal cell line (OEC)", "assay": "Growth inhibition of normal cells, OEC", "format": "cell-based", "conditions": "100 μg/mL, in vitro, read-out: growth inhibition percentage", "description": "(§1) The compound of Formula I was tested for its antitumor activity against various cancer cell lines, in vitro, in non-small cell lung cancer (A549), colorectal carcinoma (HCT116), prostate cancer (PC3), pharynx squamous carcinoma (FaDu), triple-negative breast cancer (MDA-MB-468), cervical cancer (HeLa), and human oral epithelial normal cell line (OEC)."}, "[2]": {"tested_on": "human non-small cell lung cancer (A549)", "assay": "Growth inhibition of cancerous cells, A549", "format": "cell-based", "conditions": "concentration of 100 μg/mL, in vitro, read-out: growth inhibition percentage", "description": "as §1"}, "[3]": {"tested_on": "colorectal carcinoma (HCT116)", "assay": "Growth inhibition of cancerous cells, HCT116", "format": "cell-based", "conditions": "Homo sapiens, HCT-116, concentration of 100 μg/mL, in vitro, read-out: growth inhibition percentage", "description": "as §1"}, "cervical cancer (HeLa)": {"tested_on": "cervical cancer (HeLa)", "assay": "Growth inhibition of cancerous cells, HeLa", "format": "cell-based", "conditions": "Homo sapiens, concentration of 100 μg/mL, in vitro, read-out: growth inhibition percentage", "description": "as §1"}, "prostate cancer (PC3)": {"tested_on": "prostate cancer (PC3)", "assay": "Growth inhibition of cancerous cells, PC3", "format": "cell-based", "conditions": "Homo sapiens, concentration of 100 μg/mL, in vitro, read-out: growth inhibition percentage", "description": "as §1"}, "[4]": {"tested_on": "triple-negative breast cancer (MDA-MB-468)", "assay": "Growth inhibition of cancerous cells, MDA-MB-468", "format": "cell-based", "conditions": "Homo sapiens, concentration of 100 μg/mL, in vitro, read-out: growth inhibition percentage", "description": "as §1"}, "[5]": {"tested_on": "pharynx squamous carcinoma (FaDu)", "assay": "Growth inhibition of cancerous cells, FaDu", "format": "cell-based", "conditions": "Homo sapiens, concentration of 100 μg/mL, in vitro, read-out: growth inhibition percentage", "description": "as §1"}}}
{"smiles": "COc1cccc2c1C(=O)c1c(O)c3c(c(O)c1C2=O)C[C@@](O)(C(=O)CO)C[C@@H]3O[C@H]1C[C@H](N)[C@H](O)[C@H](C)O1", "note": "[doxorubicin, reference compound]", "values": [{"measurement": "inhibition at 100 µg/mL", "setting": "[1]", "value": 57.9, "unit": "%"}]}
{"smiles": "O=C1S/C(=C/c2ccc(F)cc2)C(=O)N1CCCN1C(=O)c2ccccc2C1=O", "note": "[Formula I, 3-(3-(1,3-Dioxoisoindolin-2-yl)propyl)-5-(4-fluorobenzylidene) thiazolidine-2,4-dione]", "values": [{"measurement": "inhibition at 100 µg/mL", "setting": "[2]", "value": 79.1, "unit": "%"}, {"measurement": "inhibition at 100 µg/mL", "setting": "[3]", "value": 79.3, "unit": "%"}, {"measurement": "inhibition at 100 µg/mL", "setting": "cervical cancer (HeLa)", "value": 73.1, "unit": "%"}, {"measurement": "inhibition at 100 µg/mL", "setting": "prostate cancer (PC3)", "value": 84.3, "unit": "%"}, {"measurement": "inhibition at 100 µg/mL", "setting": "[4]", "value": 87.8, "unit": "%"}, {"measurement": "inhibition at 100 µg/mL", "setting": "[1]", "value": 61.2, "unit": "%"}, {"measurement": "inhibition at 100 µg/mL", "setting": "[5]", "value": 86.8, "unit": "%"}, {"measurement": "melting point", "value": "233 to 234", "unit": "°C"}]}
